Results on 30 compounds are retold here after patent US7435837B2, “Dihydrobenzofuranyl alkanamine derivatives and methods for using same” (Wyeth, priority 2003, dated 2008).

Each structure is given as a SMILES string.

This assay has as its target T1, human 5-HT2C receptor (Homo sapiens, UniProt P28335).
T1 sequence (P28335 33-458): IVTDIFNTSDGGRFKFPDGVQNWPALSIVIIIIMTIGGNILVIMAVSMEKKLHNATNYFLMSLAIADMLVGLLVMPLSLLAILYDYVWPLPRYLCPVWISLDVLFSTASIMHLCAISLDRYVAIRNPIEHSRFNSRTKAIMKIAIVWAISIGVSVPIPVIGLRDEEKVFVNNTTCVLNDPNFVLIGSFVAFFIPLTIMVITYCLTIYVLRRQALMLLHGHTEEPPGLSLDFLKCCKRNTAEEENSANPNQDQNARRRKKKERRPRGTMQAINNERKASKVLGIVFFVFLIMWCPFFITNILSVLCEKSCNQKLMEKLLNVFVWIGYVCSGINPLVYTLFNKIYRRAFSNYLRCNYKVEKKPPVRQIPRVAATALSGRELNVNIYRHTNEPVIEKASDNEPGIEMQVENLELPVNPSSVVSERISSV
In words: 5-HT2C receptor-stimulated calcium mobilization (FLIPR) in CHO cells.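 For all read-outs here: Fluo-3-AM fluorescence read on FLIPR every 1 s, agonist added after 10 baseline reads, response taken as peak minus lowest raw fluorescence count.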 Type of assay: cell-based. Conditions: for Emax: CHO, read-out: 5-HT2C Function Emax (%); for Emax / 5-HT2C Function Emax (%): percentage of the response observed with a maximally effective concentration of 5-HT; for EC50: calcium mobilization, CHO cells stably expressing human 5-HT2C, read-out: 5-HT2C Function EC50. Background: Calcium flux is commonly read through the fluorescence of an indicator in the cells.

A word on the Emax: it is the maximal effect, on the per cent scale that the assay sets. In general, EC50 refers to the concentration needed to bring the measured effect to its halfway point. Consider `CNCC1Cc2cccc(-c3cccnc3)c2O1` (racemic) [Example 436, (±)-N-methyl-1-(7-pyridin-3-yl-2,3-dihydro-1-benzofuran-2-yl)methanamine], for which the Emax amounted to 90% and the EC50 was found to be 55 nM.

As for `CNCC1Cc2cccc(-c3cccc(F)c3F)c2O1` (racemic) [Example 437, (±)-[(N-methyl-1-[7-(2,3-difluorophenyl)-2,3-dihydro-1-benzofuran-2-yl]methanamine], the maximum response (Emax) was found to be 80% and the half-maximal effective concentration (EC50) was found to be 30 nM.

Take `CNCC1Cc2cc(F)cc(-c3cccc(OC)c3OC)c2O1` (racemic) [Example 444, (±)-{[7-(2,3-dimethoxyphenyl)-5-fluoro-2,3-dihydro-1-benzofuran-2-yl]methyl}methylamine]: the Emax is 80% and the 50% effective concentration (EC50) is 37 nM.

In the case of `CNCC1Cc2cc(F)cc(-c3c(C)cccc3C)c2O1` (racemic) [Example 453, (±)-{[7-(2,6-dimethylphenyl)-5-fluoro-2,3-dihydro-1-benzofuran-2-yl]methyl}methylamine], the Emax stood at 80% and the EC50 stood at 24 nM.

Turning to `CNCC1Cc2cc(Cl)cc(-c3ccccc3OC)c2O1` (racemic) [Example 460, (±)-[(5-chloro-7-(2-methoxyphenyl)-2,3-dihydro-1-benzofuran-2-yl]methyl}methylamine], the maximal effect (Emax) came to 90% and the EC50 amounted to 215 nM.

Regarding `CNCC1Cc2cc(Cl)cc(-c3c(C)cccc3C)c2O1` (racemic) [Example 461, (±)-{[5-chloro-7-(2,6-dimethylphenyl)-2,3-dihydro-1-benzofuran-2-yl]methyl}methylamine], the Emax was found to be 80% and the 50% effective concentration (EC50) was 34 nM.

As for `CNCC1Cc2cc(Cl)cc(-c3ccccc3F)c2O1` (racemic) [Example 462, (±)-[(5-chloro-7-(2-fluorophenyl)-2,3-dihydro-1-benzofuran-2-yl]methyl}methylamine], the maximal response (Emax) came out at 80% and the EC50 was determined as 79 nM.

As for `CNCC1Cc2cc(Cl)cc(-c3cccc(Cl)c3Cl)c2O1` (racemic) [Example 464, (±)-{[5-chloro-7-(2,3-dichlorophenyl)-2,3-dihydro-1-benzofuran-2-yl]methyl}methylamine], the maximal effect (Emax) was 70% and the EC50 is 462 nM.

With `CNCC1Cc2cc(Cl)cc(-c3cccc(C)c3C)c2O1` (racemic) [Example 465, (±)-{[5-chloro-7-(2,3-dimethylphenyl)-2,3-dihydro-1-benzofuran-2-yl]methyl}methylamine], the Emax was found to be 60% and the half-maximal effective concentration (EC50) was determined as 496 nM.

With `CNCC1Cc2cc(Cl)cc(-c3cccc(OC)c3OC)c2O1` (racemic) [Example 466, (±)-{[5-chloro-7-(2,3-dimethoxyphenyl)-2,3-dihydro-1-benzofuran-2-yl]methyl}methylamine], the Emax turned out to be 70% and the concentration for a half-maximal effect (EC50) came out at 55 nM.

Regarding `CNCC1Cc2cc(Cl)cc(-c3ccc(F)cc3F)c2O1` (racemic) [Example 467, (±)-{[5-chloro-7-(2,4-difluorophenyl)-2,3-dihydro-1-benzofuran-2-yl]methyl}methylamine], the Emax was found to be 80% and the half-maximal effective concentration (EC50) was found to be 257 nM.

Turning to `CNCC1Cc2cc(Cl)cc(-c3ccc(Cl)cc3Cl)c2O1` (racemic) [Example 468, (±)-{[5-chloro-7-(2,4-dichlorophenyl)-2,3-dihydro-1-benzofuran-2-yl]methyl}methylamine], the maximal response (Emax) is 80% and the concentration for a half-maximal effect (EC50) worked out at 73 nM.

In the case of `CNCC1Cc2cc(Cl)cc(-c3ccc(OC)cc3OC)c2O1` (racemic) [Example 469, (±)-{[5-chloro-7-(2,4-dimethoxyphenyl)-2,3-dihydro-1-benzofuran-2-yl]methyl}methylamine], the Emax stood at 80% and the EC50 came out at 21 nM.

`CNCC1Cc2cc(Cl)cc(-c3cc(F)ccc3F)c2O1` (racemic) [Example 470, (±)-{[5-chloro-7-(2,5-difluorophenyl)-2,3-dihydro-1-benzofuran-2-yl]methyl}methylamine]: the Emax was 70% and the EC50 was found to be 289 nM.

For the compound `CNCC1Cc2cc(Cl)cc(-c3cc(Cl)ccc3Cl)c2O1` (racemic) [Example 471, (±)-{[5-chloro-7-(2,5-dichlorophenyl)-2,3-dihydro-1-benzofuran-2-yl]methyl}methylamine], the Emax is 90% and the EC50 came out at 14 nM.

With `CNCC1Cc2cc(Cl)cc(-c3cc(Cl)ccc3OC)c2O1` (racemic) [Example 472, (±)-{[5-chloro-7-(5-chloro-2-methoxyphenyl)-2,3-dihydro-1-benzofuran-2-yl]methyl}methylamine], the maximal effect (Emax) came out at 80% and the EC50 was determined as 353 nM.

`COc1cccc(-c2cc(F)cc3c2OC(CN)C3)c1OC` (single isomer, unassigned; (+)) [Example 214, (+)-{[7-(2,3-dimethoxyphenyl)-5-fluoro-2,3-dihydro-1-benzofuran-2-yl]methyl}amine]: the EC50 was 79 nM and the “5-HT2C Function Emax (%)” value is given as 70%.

Regarding `Cc1cccc(C)c1-c1cc(F)cc2c1OC(CN)C2` (single isomer, unassigned; (+)) [Example 228, (+)-{[7-(2,6-dimethylphenyl)-5-fluoro-2,3-dihydro-1-benzofuran-2-yl]methyl}amine], the EC50 was 313 nM and the “5-HT2C Function Emax (%)” value is listed as 70%.

As for `Cc1cccc(C)c1-c1cc(Cl)cc2c1OC(CN)C2` (single isomer, unassigned; (+)) [Example 262, (+)-{[5-chloro-7-(2,6-dimethylphenyl)-2,3-dihydro-1-benzofuran-2-yl]methyl}amine], the EC50 turned out to be 471 nM and the “5-HT2C Function Emax (%)” value turned out to be 70%.

Regarding `COc1cccc(-c2cc(C)cc3c2OC(CN)C3)c1OC` (single isomer, unassigned; (+)) [Example 296, (+)-{[7-(2,3-dimethoxyphenyl)-5-methyl-2,3-dihydro-1-benzofuran-2-yl]methyl}amine], the EC50 was determined as 50 nM and the “5-HT2C Function Emax (%)” value was found to be 80%.

Consider `CNCC1Cc2cccc(-c3c(Cl)cccc3Cl)c2O1` (single isomer, unassigned; (+)) [Example 435, (+)-{[7-(2,6-dichlorophenyl)-2,3-dihydro-1-benzofuran-2-yl]methyl}methylamine], for which the half-maximal effective concentration (EC50) was determined as 82 nM and the “5-HT2C Function Emax (%)” value is given as 80%.

For `CNCC1Cc2cc(F)cc(-c3ccc(Cl)cc3Cl)c2O1` (single isomer, unassigned; (+)) [Example 447], the EC50 was 3 nM and the “5-HT2C Function Emax (%)” value is listed as 90%.

As to `CNCC1Cc2cc(F)cc(-c3c(Cl)cccc3Cl)c2O1` (single isomer, unassigned; (+)) [Example 543, (+){[7-(2,6-dichlorophenyl)-5-fluoro-2,3-dihydro-1-benzofuran-2-yl]methyl}methylamine], the EC50 was 0.2 nM and the “5-HT2C Function Emax (%)” value came out at 100%.

`CNCC1Cc2cc(F)cc(-c3c(C)cccc3C)c2O1` (single isomer, unassigned; (+)) [Example 558, (+)-{[7-(2,6-dimethylphenyl)-5-fluoro-2,3-dihydro-1-benzofuran-2-yl]methyl}methylamine]: the Emax came out at 70% and the EC50 amounted to 265 nM.

`CNCC1Cc2cc(Cl)cc(-c3c(C)cccc3C)c2O1` (single isomer, unassigned; (+)) [Example 565, (+)-{[5-chloro-7-(2,6-dimethylphenyl)-2,3-dihydro-1-benzofuran-2-yl]methyl}methylamine]: the EC50 was 287 nM and the “5-HT2C Function Emax (%)” value came to 70%.

For the compound `CNCC1Cc2cc(C)cc(-c3cccc(OC)c3OC)c2O1` (single isomer, unassigned; (+)) [Example 566, (+)-{[7-(2,3-dimethoxyphenyl)-5-methyl-2,3-dihydro-1-benzofuran-2-yl]methyl}methylamine], the maximal effect (Emax) is 70% and the EC50 was 3 nM.

For `CNCC1Cc2cc(F)cc(-c3cccc(OC)c3OC)c2O1` (single isomer, unassigned; (+)) [Example 569, (+)-{[7-(2,3-dimethoxyphenyl)-5-fluoro-2,3-dihydro-1-benzofuran-2-yl]methyl}methylamine], the EC50 was 6 nM and the “5-HT2C Function Emax (%)” value was 60%.

For the compound `COc1cccc(-c2cc(F)cc3c2OC(CN)C3)c1OC` (single isomer, unassigned; (-)) [Example 213, (−)-{[7-(2,3-dimethoxyphenyl)-5-fluoro-2,3-dihydro-1-benzofuran-2-yl]methyl}amine], the EC50 is 9 nM and the “5-HT2C Function Emax (%)” value was found to be 100%.

On to `COc1cccc(-c2cc(C)cc3c2OC(CN)C3)c1OC` (single isomer, unassigned; (-)) [Example 295, (−)-{[7-(2,3-dimethoxyphenyl)-5-methyl-2,3-dihydro-1-benzofuran-2-yl]methyl}amine], for which the maximum response (Emax) turned out to be 90% and the concentration giving a half-maximal response (EC50) turned out to be 8 nM.

Regarding `COc1cc2c(c(-c3cc(Cl)ccc3Cl)c1)OC(CN)C2` (single isomer, unassigned; (-)) [Example 369, (−)-{[7-(2,5-dichlorophenyl)-5-methoxy-2,3-dihydro-1-benzofuran-2-yl]methyl}amine], the EC50 is 283 nM and the “5-HT2C Function Emax (%)” value was 90%.
